In ChEMBL document CHEMBL3045223, “Synthesis, nematicidal and antimicrobial properties of Bis-[4-methoxy-3-[3-(4-fluorophenyl)-6-(4-methylphenyl)-2(aryl)-tetrahydro-2H-pyrazolo[3,4-d]thiazol-5-yl]phenyl]methanes” (2009):
≈ marks a conversion by molar mass, not a printed value. Calls of active or inactive are those of the source. No cut-off for these calls is given here.

Key:
Assay type in all cases: functional
[1] = system: Trichophyton mentagrophytes; assay: Antifungal activity against Trichophyton mentagrophytes IFO 40996 assessed as growth inhibition at 37 degC for 48 hr
[2] = system: Trichophyton rubrum; assay: Antifungal activity against Trichophyton rubrum IFO 9185 assessed as growth inhibition at 37 degC for 48 hr; conditions: IFO 9185, 48 h
[3] = system: Aspergillus fumigatus; assay: Antifungal activity against Aspergillus fumigatus HIC 6094 assessed as growth inhibition at 37 degC for 48 hr; conditions: HIC 6094, 48 h
[4] = system: Candida albicans; assay: Antifungal activity against Candida albicans ATCC 10231 assessed as growth inhibition at 37 degC for 48 hr; conditions: ATCC 10231, 48 h
[5] = system: Trichophyton mentagrophytes; assay: Antifungal activity against Trichophyton mentagrophytes IFO 40996 assessed as growth inhibition at 300 ug/disc at 37 degC for 48 hr
[6] = system: Trichophyton rubrum; assay: Antifungal activity against Trichophyton rubrum IFO 9185 assessed as growth inhibition at 300 ug/disk at 37 degC for 48 hr
[7] = system: Aspergillus fumigatus; assay: Antifungal activity against Aspergillus fumigatus HIC 6094 assessed as growth inhibition at 300 ug/disc at 37 degC for 48 hr
[8] = system: Candida albicans; assay: Antifungal activity against Candida albicans ATCC 10231 assessed as growth inhibition at 300 ug/disk at 37 degC for 48 hr; conditions: ATCC 10231, 48 h, read-out: IZ
[9] = system: Chromobacterium violaceum; assay: Antibacterial activity against Chromobacterium violaceum MTCC 2656 assessed as growth arrest at 37 degC for 24 hr; conditions: MTCC 2656, 24 h
[10] = system: Klebsiella aerogenes; assay: Antibacterial activity against Enterobacter aerogenes MTCC 39 assessed as growth arrest at 37 degC for 24 hr; conditions: MTCC 39, 24 h
[11] = system: Pseudomonas aeruginosa; assay: Antibacterial activity against Pseudomonas aeruginosa MTCC 741 assessed as growth arrest at 37 degC for 24 hr; conditions: MTCC 741, 24 h
[12] = system: Staphylococcus aureus; assay: Antibacterial activity against Staphylococcus aureus MTCC 96 assessed as growth arrest at 37 degC for 24 hr; conditions: MTCC 96, 24 h
[13] = system: Lysinibacillus sphaericus; assay: Antibacterial activity against Lysinibacillus sphaericus MTCC 11 assessed as growth arrest at 37 degC for 24 hr; conditions: MTCC 11, 24 h
[14] = system: Bacillus subtilis; assay: Antibacterial activity against Bacillus subtilis MTCC 441 assessed as growth arrest at 37 degC for 24 hr; conditions: MTCC 441, 24 h
[15] = system: Chromobacterium violaceum; assay: Antibacterial activity against Chromobacterium violaceum MTCC 2656 assessed as inhibition zones at 300 ug/disk at 37 degC for 24 hr; conditions: MTCC 2656, 24 h, read-out: IZ
[16] = system: Klebsiella aerogenes; assay: Antibacterial activity against Enterobacter aerogenes MTCC 39 assessed as inhibition zones at 300 ug/disk at 37 degC for 24 hr; conditions: MTCC 39, 24 h, read-out: IZ
[17] = system: Pseudomonas aeruginosa; assay: Antibacterial activity against Pseudomonas aeruginosa MTCC 741 assessed as inhibition zones at 300 ug/disk at 37 degC for 24 hr; conditions: MTCC 741, 24 h, read-out: IZ
[18] = system: Staphylococcus aureus; assay: Antibacterial activity against Staphylococcus aureus MTCC 96 assessed as inhibition zones at 300 ug/disc at 37 degC for 24 hr; conditions: MTCC 96, 24 h, read-out: IZ
[19] = system: Lysinibacillus sphaericus; assay: Antibacterial activity against Lysinibacillus sphaericus MTCC 11 assessed as inhibition zones at 300 ug/disk at 37 degC for 24 hr; conditions: MTCC 11, 24 h, read-out: IZ
[20] = system: Bacillus subtilis; assay: Antibacterial activity against Bacillus subtilis MTCC 441 assessed as inhibition zones at 300 ug/disk at 37 degC for 24 hr; conditions: MTCC 441, 24 h, read-out: IZ
[21] = system: Caenorhabditis elegans; assay: Nematicidal activity against Caenorhabditis elegans assessed as immobility; conditions: read-out: LD50 (the source's name)
[22] = system: Ditylenchus myceliophagus; assay: Nematicidal activity against Ditylenchus myceliophagus assessed as immobility; conditions: read-out: LD50 (the source's name)

Row | SMILES | MBC [2] [µg/mL] | MIC [2] [µg/mL] | MBC [3] [µg/mL] | MIC [3] [µg/mL] | MBC [4] [µg/mL] | MIC [4] [µg/mL] | zone of inhibition at 300 µg/disc [8] [mm] | MBC [9] [µg/mL] | MIC [9] [µg/mL] | MBC [10] [µg/mL] | MIC [10] [µg/mL] | MBC [11] [µg/mL] | MIC [11] [µg/mL] | MBC [12] [µg/mL] | MIC [12] [µg/mL] | MBC [13] [µg/mL] | MIC [13] [µg/mL] | MBC [14] [µg/mL] | MIC [14] [µg/mL] | zone of inhibition at 300 µg/disc [15] [mm] | further results
1 | COc1ccc(Cc2ccc(OC)c(C3SC4C(=NN(C)C4c4ccc(F)cc4)N3c3ccc(Cl)cc3)c2)cc1C1SC2C(=NN(C)C2c2ccc(F)cc2)N1c1ccc(Cl)cc1 (centres undefined) | 25 (≈ 27.2 µM) | 6.25 (≈ 6.79 µM) | 50 (≈ 54.4 µM) | 6.25 (≈ 6.79 µM) | 25 (≈ 27.2 µM) | 12.5 (≈ 13.6 µM) | 18 | 50 (≈ 54.4 µM) | 12.5 (≈ 13.6 µM) | 25 (≈ 27.2 µM) | 12.5 (≈ 13.6 µM) | 25 (≈ 27.2 µM) | 12.5 (≈ 13.6 µM) | 12.5 (≈ 13.6 µM) | 12.5 (≈ 13.6 µM) | 25 (≈ 27.2 µM) | 12.5 (≈ 13.6 µM) | 50 (≈ 54.4 µM) | 12.5 (≈ 13.6 µM) | 19 | MBC [1]: inactive; MIC [1]: inactive; zone of inhibition at 300 µg/disc ([5]; IFO 40996, 48 h, read-out: IZ): 16 mm; zone of inhibition at 300 µg/disc ([6]; IFO 9185, 48 h, read-out: IZ): 13 mm; zone of inhibition at 300 µg/disc ([7]; HIC 6094, 48 h, read-out: IZ): 15 mm; zone of inhibition at 300 µg/disc [16]: 21 mm; zone of inhibition at 300 µg/disc [17]: 21 mm; zone of inhibition at 300 µg/disc [18]: 20 mm; zone of inhibition at 300 µg/disc [19]: 20 mm; zone of inhibition at 300 µg/disc [20]: 21 mm; LC50 [21]: 210 µg/mL (≈ 228 µM); LC50 [22]: 190 µg/mL (≈ 207 µM)
2 | COc1ccc(Cc2ccc(OC)c(C3SC4C(=NN(c5ccc(Cl)cc5)C4c4ccc(F)cc4)N3c3ccc([N+](=O)[O-])cc3)c2)cc1C1SC2C(=NN(c3ccc(Cl)cc3)C2c2ccc(F)cc2)N1c1ccc([N+](=O)[O-])cc1 (centres undefined) | 50 (≈ 44.1 µM) | 25 (≈ 22 µM) | 50 (≈ 44.1 µM) | 25 (≈ 22 µM) | 25 (≈ 22 µM) | 25 (≈ 22 µM) | 15 | 50 (≈ 44.1 µM) | 12.5 (≈ 11 µM) | 25 (≈ 22 µM) | 12.5 (≈ 11 µM) | 50 (≈ 44.1 µM) | 50 (≈ 44.1 µM) | 25 (≈ 22 µM) | 6.25 (≈ 5.51 µM) | 50 (≈ 44.1 µM) | 12.5 (≈ 11 µM) | 50 (≈ 44.1 µM) | 6.25 (≈ 5.51 µM) | 16 | MBC ([1]; IFO 40996, 48 h): 12.5 µg/mL (≈ 11 µM); MIC ([1]; IFO 40996, 48 h): 6.25 µg/mL (≈ 5.51 µM); inhibition zone (IZ) [5]: inactive; inhibition zone (IZ) [6]: inactive; inhibition zone (IZ) [7]: inactive; zone of inhibition at 300 µg/disc [16]: 20 mm; zone of inhibition at 300 µg/disc [17]: 16 mm; zone of inhibition at 300 µg/disc [18]: 16 mm; zone of inhibition at 300 µg/disc [19]: 16 mm; zone of inhibition at 300 µg/disc [20]: 21 mm; LC50 [21]: 350 µg/mL (≈ 309 µM); LC50 [22]: 230 µg/mL (≈ 203 µM)
